What was measured:
Assay type in all cases: cell-based
[1] = test system: IL-6 secreted from A549 cells; assay: IL-6 secretion from TNFα-treated A549 cells (ELISA); conditions: for IL-6 secretion: at the concentration and ratio found in 10 μg/ml FCBD:std
Method: (§1) Cell cultures—The lung cancer cell line A549 (ATCC® CCL-185™) was cultured in DMEM (01-055-1A, Biological Industries, Israel) growth media supplemented with 10% FBS (04-127-1A, Biological Industries, Israel), 1% […], 1% pen-strep and plasmocin. Macrophage cell line KG1 (ATCC® CCL-246™) was cultured in IMDM (01-058-1A; Biological Industries, Israel) containing 20% FBS and 1% pen-strep and plasmocin. IMDM media supplemented with 10 ng/mL PMA, 5% FBS, 1% pen-strep and plasmocin was used as stimulating environment for the differentiation of KG1 cells. Differentiated cells with typical morphology were attached to the plate surface within 1-2 days of initiation^39.
(§2) Determination of IL levels and cell viability—IL-6 and IL-8 levels were determined as described previously^40 with the following modifications: A549 cells were plated at 5×10^4 cells per well in DMEM complete media (400 μL) in a 24-well cell culture plate. Cells were allowed to attach and incubated with complete DMEM at 37° C. in a humidified atmosphere containing 5% CO2-95% air. Following overnight incubation, cells were treated with 300 ng/mL TNFα with or without plant extract or fraction/compounds. IL-6 and IL-8 secretion levels were analyzed after 4 hours of incubation. Supernatant samples were taken and tested using IL-6 and IL-8 ELISA kits (DY206 and DY208 respectively, R&D Systems, Minneapolis, Minn., USA). Dexamethasone was used as a positive control. For cell viability, an Alamar Blue (resazurin) assay was performed on each well as described previously^40. For dose response assays, data points were connected by non-linear regression lines of the sigmoidal dose-response relation. GraphPad Prism (GraphPad Software Inc., San Diego, USA) was employed to produce dose-response curves and IC50 doses were calculated using nonlinear regression analysis.

[2] = test system: IL-8 secreted from A549 cells; assay: IL-8 secretion from TNFα-treated A549 cells (ELISA); conditions: for IL-8 secretion: at the concentration and ratio found in 10 μg/ml FCBD:std
Method: as §1, §2

IL-8 = assay: qPCR of IL-8 mRNA in PMA-treated KG1 cells (differentiated macrophages); conditions: 6 hours, FCBD and FCBD:std 7 μg/mL, Dex 8 μg/mL, relative to control
Method: as §1
(§3) Quantitative real-time (qRT) PCR—qRT PCR was effected as described^38. Briefly, cells were seeded in a 6-well plate at a concentration of 1.5×10^6 cells in 3 mL per well. Following 24 hours incubation, cells were treated with extract/fraction/compounds for 6 hours. Cells were harvested and RNA was extracted using TRI reagent (T9424, Sigma Aldrich, USA). RNA was reverse-transcribed in a total volume of 20 μL (PB30.11-10; qPCRBIO), according to manufacturer's protocol. PCR was performed in triplicate using qPCR SyGreen Blue Mix (PB20.16-20, qPCRBIO) and a StepOnePlus system (Applied Biosystems). […]

IL-6 = assay: qPCR of IL-6 mRNA in PMA-treated KG1 cells (differentiated macrophages); conditions: 6 hours, FCBD and FCBD:std 7 μg/mL, Dex 8 μg/mL, relative to control
Method: as §1, §3

CCL2 = assay: qPCR of CCL2 mRNA in PMA-treated KG1 cells (differentiated macrophages); conditions: 6 hours, FCBD and FCBD:std 7 μg/mL, Dex 8 μg/mL, relative to control
Method: as §1, §3

[3] = test system: IL-8 secreted from KG1 cells; assay: IL-8 secretion from KG1 cells treated with TNFα (ELISA); conditions: 300 ng/mL TNFα, 4 hours, FCBD or FCBD:std 10 μg/mL or indicated concentrations, Dex 4 μg/mL
Method: as §1
Determination of IL levels and cell viability—IL-6 and IL-8 levels were determined as described previously^40 with the following modifications: A549 cells were plated at 5×10^4 cells per well in DMEM complete media (400 μL) in a 24-well cell culture plate. Cells were allowed to attach and incubated with complete DMEM at 37° C. in a humidified atmosphere containing 5% CO2-95% air. […] IL-6 and IL-8 secretion levels were analyzed after 4 hours of incubation. […] GraphPad Prism (GraphPad Software Inc., San Diego, USA) was employed to produce dose-response curves and IC50 doses were calculated using nonlinear regression analysis.

CD36 = assay: qPCR of CD36 mRNA in PMA-treated KG1 cells; conditions: FCBD and FCBD:std 7 μg/mL, Palmitic acid 150 μM, versus vehicle control
Method: as §1, §3

[4] = higher or lower concentrations of CBD than 3.0 μg/mL

With `CCCc1cc(O)c2c(c1)OC(C)(C)[C@@H]1CCC(C)=C[C@@H]21` [THCV, tetrahydrocannabivarin] the IL-6 secretion [1] was “did not lead to such a reduction” and the IL-8 secretion [2] was “did not lead to such a reduction”.
`C[C@@H]1C[C@H]2[C@@H]3CCC4=CC(=O)C=C[C@]4(C)[C@@]3(F)[C@@H](O)C[C@]2(C)[C@@]1(O)C(=O)CO` [dexamethasone, Dexamethasone] was tested, and the “increase of IL-8 mRNA expression level” value (IL-8) was “no effect”, the “increase of IL-6 mRNA expression level” value (IL-6) was “no effect” and the “increase of CCL2 mRNA expression level” value (CCL2) was “no effect”. The “IL-8 secretion from KG1 cells” value [3] was “no effect”.
`Cc1c(C(=O)NN2CCCCC2)nn(-c2ccc(Cl)cc2Cl)c1-c1ccc(I)cc1` [CB1 IA] was tested, and the “IL-6 levels, inverse agonist alone” value ([1]; treatment with IA only) was “reduction” and the “IL-8 levels, inverse agonist alone” value ([2]; treatment with IA only) was “reduction”.
For `CCCCCCCCCCCCCCCC(=O)O` [PA, Palmitic acid], the “mRNA expression of CD36” value (CD36) was “reduced”.
With `CCCCCc1cc(O)c(C/C=C(\C)CCC=C(C)C)c(O)c1` [CBG, cannabigerol] the IL-6 secretion [1] was “did not lead to such a reduction” and the IL-8 secretion [2] was “did not lead to such a reduction”.
With `C=C(C)[C@@H]1CCC(C)=C[C@H]1c1c(O)cc(CCCCC)cc1O` [CBD, cannabidiol] the “IL-6 levels, anti-inflammatory activity” value ([1]; CBD alone at 3.0 μg/mL) was “showed anti-inflammatory activity”, the IL-6 secretion [1] was “did not lead to such a reduction” and the “activity in reducing IL-6 levels” value [1, 4] was “lower and/or non-significant activity”. The “IL-8 levels, anti-inflammatory activity” value ([2]; CBD alone at 3.0 μg/mL) was “showed anti-inflammatory activity”, the IL-8 secretion [2] was “did not lead to such a reduction” and the “activity in reducing IL-8 levels” value [2, 4] was “lower and/or non-significant activity”.
